The values that follow come from US5021421A, “2-(1-Piperazinyl)-4-phenylcycloalkanopyridine derivatives, processes for the production thereof, and pharmaceutical composition containing the same” (Dainippon Pharmaceutical Co., Ltd., priority 1989, dated 1991).

Structures can show the parent of a compound that is named as a salt. Where two headings read alike, the source gives them in different places.

Test [1] has as its system apomorphine-induced vomiting. The test is described as follows: Antagonistic effect on apomorphine-induced vomiting. The class given is in vivo, dogs (Beagle). Conditions: Canis lupus familiaris, sc, apomorphine 0.3 mg/kg s.c. 2 h after compound, read-out: Inhibitory ratio (apomorphine-induced vomiting). As for the experimental part:
A group of 3-4 dogs (Beagle, 8-15 kg) was used for examining effects on the test compounds on apomorphine-induced vomiting, a known test for evaluating neuroleptic drugs.
Each dog was given a subcutaneous injection of apomorphine hydrochloride (0.3 mg/kg) two hours after the treatment of the test compounds. Then, the frequency of oral vomiting was counted for one hour. The mean counts of the compound-treated group were compared with those of the corresponding control (non-dosed) group, and the percent inhibition was calculated.

Test [2] concerns brain monoamine metabolites. Put plainly: Increasing effect on concentration of brain monoamine metabolites. Conditions: Mus musculus, 2 h, non-dosed=100. The test is classed as in vivo, mice (Std-ddy strain). As for the experimental part:
A group of 5 male mice (Std-ddy strain, 25-30 g) was used for examining effect of the test compounds on concentration of brain monoamine metabolites.
Mice were killed by decapitation 2 hours after treatment with the test compounds. Brains were quickly taken out, homogenized in 1N formic acid-acetone solution, and centrifuged in a refrigerated ultracentrifuge. The supernatant was evaporated by blowing with N2 gas. Then, the residue was again resolved in 0.01 N acetic acid, and served for determining concentration of dopamine metabolites, 3,4-dihydroxyphenylacetic acid (DOPAC) and homovanillic acid (HVA), a norepinephrine metabolite, 3-methyl-4-hydroxyphenylethylene glycol (MOPEG), and a serotonin metabolite, 5-hydroxyindole-3-acetic acid (5-HIAA) concentrations by HPLC with electrochemical detection. The effect of the test compounds on concentration of each monoamine metabolite is shown as % of control (level of non-dosed animals=100) in Table 4.

Where [3] appears, read: read-out: 5-HIAA concentration, % of control.
Setting [4] is: read-out: DOPAC concentration, % of control.
[5] abbreviates: read-out: HVA concentration, % of control.
[6] abbreviates: read-out: MOPEG concentration, % of control.

With `CCN1CCN(c2cc(-c3ccc(F)cc3)c3c(n2)CCC(C)(C)C3)CC1` [Example 66], the inhibition in vivo at 1 mg/kg in test [1] came to 95%. For the same molecule, the response vs control in vivo at 2 mg/kg in test [2] (setting [3]) came to 116%; in test [2] (setting [4]), 311%; in test [2] (setting [5]), 308%; in test [2] (setting [6]), 111%.
For the molecule `CCN1CCN(c2cc(-c3ccc(F)cc3)c3c(n2)CCC(C)C3)CC1` (centres unmarked) [Example 59], the response vs control in vivo at 2 mg/kg in test [2] (setting [3]) is 106%; in test [2] (setting [4]), 246%; in test [2] (setting [5]), 236%; in test [2] (setting [6]), 126%.
Consider `Cc1ccc(-c2cc(N3CCN(CCO)CC3)nc3c2CCCCC3)cc1` [Example 35], for which the values for the response vs control in vivo at 10 mg/kg in test [2] (setting [4]) and in test [2] (setting [5]) were 165% and 170%, respectively.
In the same order, the values of `Cc1ccc(-c2cc(N3CCN(CCO)CC3)nc3c2CCCCCC3)cc1` [Example 52] are 233% and 216%.
In the case of `C[C@@H]1CN(c2cc(-c3ccc(F)cc3)c3c(n2)CCCCCC3)C[C@H](C)N1C` [Example 117, 2-(cis-3,5-Dimethyl-4-methyl-1-piperazinyl)-4-(4-fluorophenyl)-5,6,7,8,9,10-hexahydrocycloocta[b]pyridine fumarate], the response vs control in vivo at 10 mg/kg in test [2] (setting [3]) amounted to 100%; in test [2] (setting [4]), 242%; in test [2] (setting [5]), 210%; in test [2] (setting [6]), 133%.
With `CCN1CCN(c2cc(-c3ccc(F)cc3)c3c(n2)CCCCCCC3)CC1` [Example 56], in test [1] (dose 0.5 mg/kg), the inhibition in vivo at 0.5 mg/kg was 85%. For the same molecule, the response vs control in vivo at 10 mg/kg in test [2] (setting [3]) was determined as 110%; in test [2] (setting [4]) it was 302%; in test [2] (setting [5]), 249%; in test [2] (setting [6]), 106%.
Turning to `CCN1CCN(c2cc(-c3ccc(F)cc3F)c3c(n2)CCCCC3)CC1` [Example 131, 2-(4-ethyl-1-piperazinyl)-4-(2,4-difluorophenyl)-6,7,8,9-tetrahydro-5H-cyclohepta[b]pyridine], the response vs control in vivo at 1 mg/kg in test [2] (setting [4]) was 319%; in test [2] (setting [5]), 224%.
`OCCCN1CCN(c2cc(-c3ccc(F)cc3)c3c(n2)CCCCCC3)CC1` [Example 138, 2-[4-(3-hydroxypropyl)-1-piperazinyl]-4-(4-fluorophenyl)-5,6,7,8,9,10-hexahydrocycloocta[b]pyridine]: the response vs control in vivo at 2 mg/kg in test [2] (setting [4]) was found to be 236%; in test [2] (setting [5]), 173%.
Regarding `CC1CN(c2cc(-c3ccc(F)cc3)c3c(n2)CCCCCC3)CCN1C` (centres unmarked) [Example 116, 2-(3,4-Dimethyl-1-piperazinyl)-4-(4-fluorophenyl)-5,6,7,8,9,10-hexahydrocycloocta[b]pyridine fumarate 1/4 hydrate], the inhibition in vivo at 1 mg/kg in test [1] amounted to 100%.
For the molecule `CCN1CCN(c2cc(-c3cccc(Cl)c3)c3c(n2)CCCCCC3)CC1` [Example 46], the response vs control in vivo at 10 mg/kg in test [2] (setting [4]) is 296%; in test [2] (setting [5]), 235%.
In the same order, the values of `CCN1CCN(c2cc(-c3ccc(F)cc3F)c3c(n2)CCC3)CC1` [Example 132, 2-(4-ethyl-1-piperazinyl)-4-(2,4-difluorophenyl)-6,7-dihydro-5H-1-pyrindin] are 333% and 209%.
For the molecule `OCCN1CCN(c2cc(-c3ccc(F)cc3)c3c(n2)CCCCC3)CC1` [Example 26], the response vs control in vivo at 10 mg/kg stood at 344% in test [2] (setting [4]) and 263% in test [2] (setting [5]).
`Fc1ccc(-c2cc(N3CCN(C4CCCCC4)CC3)nc3c2CCCCCC3)cc1` [Example 39]: the response vs control in vivo at 10 mg/kg in test [2] (setting [3]) came to 97%; in test [2] (setting [4]), 307%; in test [2] (setting [5]), 233%; in test [2] (setting [6]), 117%.
In the same order, the values of `OCCN1CCN(c2cc(-c3ccccc3)c3c(n2)CCCCC3)CC1` [Example 24] are 150%, 290%, 317% and 139%.
Take `Fc1ccc(-c2cc(N3CCNCC3)nc3c2CCCCCC3)cc1` [Example 104, 2-(1-piperazinyl)-4-(4-fluorophenyl)-5,6,7,8,9,10-hexahydrocycloocta[b]pyridine]: the response vs control in vivo at 10 mg/kg amounted to 97% in test [2] (setting [3]), 344% in test [2] (setting [4]), 247% in test [2] (setting [5]) and 160% in test [2] (setting [6]).
As to `CCN1CCN(c2cc(-c3ccc(F)cc3F)c3c(n2)C2CCC3C2)CC1` (centres unmarked) [Example 135, 2-(4-ethyl-1-piperazinyl)-4-(2,4-difluorophenyl)-5,6,7,8-tetrahydro-5,8-methanoquinoline], the inhibition in vivo at 1 mg/kg in test [1] was 100%.
`CCN1CCN(c2cc(-c3ccccc3F)c3c(n2)CCCCCC3)CC1` [Example 43]: in test [1], the inhibition in vivo at 1 mg/kg is 96%.
As to `CC1CN(c2cc(-c3ccc(F)cc3)c3c(n2)CCCCCC3)CC(C)N1` (centres unmarked) [Example 84, 2-(3,5-Dimethyl-1-piperazinyl)-4-(4-fluorophenyl)-5,6,7,8,9,10-hexahydrocycloocta[b]pyridine 1/2 fumarate], the response vs control in vivo at 10 mg/kg in test [2] (setting [4]) is 237%; in test [2] (setting [5]), 216%.
In the case of `CC(=O)OCCN1CCN(c2cc(-c3ccc(F)cc3)c3c(n2)CCCCCC3)CC1` [Example 139, 2-[4-(2-acetoxyethyl)-1-piperazinyl]-4-(4-fluorophenyl)-5,6,7,8,9,10-hexahydrocycloocta[b]pyridine], the response vs control in vivo at 10 mg/kg in test [2] (setting [4]) stood at 267%; in test [2] (setting [5]), 206%.
In the case of `CCN1CCN(c2cc(-c3ccc(F)cc3)c3c(n2)CC(C)(C)CC3C)CC1` (centres unmarked) [Example 68], the response vs control in vivo at 2 mg/kg in test [2] (setting [4]) is 206%; in test [2] (setting [5]), 181%.
With `CCCCCCN1CCN(c2cc(-c3ccc(F)cc3)c3c(n2)CCCCCC3)CC1` [Example 124], the response vs control in vivo at 10 mg/kg in test [2] (setting [3]) is 107%; in test [2] (setting [4]), 292%; in test [2] (setting [5]), 238%; in test [2] (setting [6]), 102%.
Take `CCN1CCN(c2cc(-c3c(F)cccc3F)c3c(n2)CCCCCC3)CC1` [Example 55]: the response vs control in vivo at 2 mg/kg in test [2] (setting [4]) was 379%; in test [2] (setting [5]) it was 240%.
Turning to `CCN1CCN(c2cc(-c3ccc(OC)cc3)c3c(n2)CCCCCC3)CC1` [Example 49, 2-(4-Ethyl-1-piperazinyl)-4-(4-methoxyphenyl)-5,6,7,8,9,10-hexahydrocycloocta[b]pyridine], the response vs control in vivo at 10 mg/kg in test [2] (setting [4]) stood at 197%; in test [2] (setting [5]) it was 195%.
In the same order, the values of `CCN1CCN(c2cc(-c3ccc(Cl)cc3)c3c(n2)CCCCCC3)CC1` [Example 44] are 272% and 210%.
In the same order, the values of `CCN1CCN(c2cc(-c3cccc(F)c3)c3c(n2)CCCCCC3)CC1` [Example 42] are 258% and 211%.
For the molecule `CCN1CCN(c2cc(-c3ccc(F)c(F)c3)c3c(n2)CCCCCC3)CC1` [Example 54], the response vs control in vivo at 2 mg/kg came to 251% in test [2] (setting [4]) and 250% in test [2] (setting [5]).
Consider `COCCN1CCN(c2cc(-c3ccc(F)cc3)c3c(n2)CCCCCC3)CC1` [Example 82, 2-[4-(2-Methoxyethyl)-1-piperazinyl]-4-(4-fluorophenyl)-5,6,7,8,9,10-hexahydrocycloocta[b]pyridine dimaleate], for which the inhibition in vivo at 1 mg/kg in test [1] turned out to be 100%.
